The values that follow come from publication PMC3253737 (Journal of Natural Products, 2011).

Where two headings read alike, the source gives them in different places.

The nature of one data set: MTS viability. It is filed as cell-based. The conditions noted are these: human (JMAR, MDA-1986, SKMEL-28, MRC-5) and mouse (B16F10).
Data set [1] deals with HNSCC (JMAR and MDA-1986), melanoma (B16F10 and SKMEL-28), and normal fetal fibroblast (MRC-5) cells. Put plainly: MTS viability. The class given is cell-based.
The mark [2] stands for this setting: Cytotoxicity IC50 (inactive for all cell lines used), all cell lines used (B16F10, SKMEL-28, JMAR, MDA-1986, MRC-5).

Broadly, the IC50 is the midpoint of a concentration-inhibition curve. For the compound `CC1=C(CO)C(=O)O[C@@H]([C@@H](C)[C@H]2CC[C@H]3[C@@H]4C[C@H]5O[C@]56[C@@H](O)C=CC(=O)[C@]6(CO)[C@H]4CC[C@]23C)C1` [Compound 1, 19-hydroxywithaferin A], in the data set “MTS viability”, the IC50 is 0.067 to 9.3 µM. Consider `CC1=C(C)C(=O)O[C@@H]([C@@H](C)[C@H]2CC[C@H]3[C@@H]4C[C@H]5O[C@]56[C@@H](O)C=CC(=O)[C@]6(CO)[C@H]4CC[C@]23C)C1` [Compound 2, 27-deoxy-19-hydroxywithaferin A], for which the IC50 in “MTS viability” (cytotoxicity IC50) was 0.067 to 9.3 µM. As to `CC1=C(CO)C(=O)O[C@@H]([C@@H](C)[C@H]2CC[C@H]3[C@@H]4CC=C5C=CC(=O)[C@]5(C)[C@H]4CC[C@]23C)C1` [Compound 6, A-nor-27-hydroxy-1-oxowitha-2,5,24-trienolide], in “MTS viability”, the IC50 was over 10 µM. The compound `CC1=C(CO)C(=O)O[C@@H]([C@@H](C)[C@H]2CC[C@H]3[C@@H]4C[C@H]5O[C@]56[C@@H](O)[C@@H](OS(=O)(=O)O)CC(=O)[C@]6(CO)[C@H]4CC[C@]23C)C1` [Compound 7, 2,3-dihydro-19-hydroxy-3β-O-sulfate-withaferin A] showed an IC50 in the data set “MTS viability” (cytotoxicity IC50) of 0.067 to 9.3 µM. Regarding `CC1=C(CO[C@@H]2O[C@H](CO)[C@@H](O[C@@H]3O[C@@H](C)[C@H](O)[C@@H](O)[C@H]3O)[C@H](O)[C@H]2O)C(=O)O[C@@H]([C@@H](C)[C@H]2CC[C@H]3[C@@H]4C[C@H]5O[C@]56[C@@H](O)C=CC(=O)[C@]6(C)[C@H]4CC[C@]23C)C1` [Compound 8, 27-O-[α-L-rhamnopyranosyl(1→4)]-β-D-glucopyranosyl-withaferin A], the IC50 in the data set “MTS viability” (cytotoxicity IC50) lay in the range of 0.067 to 9.3 µM. The “cytotoxicity relative to the aglycone withaferin A (16)” value in data set [1] was “less cytotoxicity”. As to `CC1=C(CO[C@@H]2O[C@H](CO)[C@@H](O)[C@H](O)[C@H]2O)C(=O)O[C@@H]([C@@H](C)[C@H]2CC[C@H]3[C@@H]4C[C@H]5O[C@]56[C@@H](O)C=CC(=O)[C@]6(C)[C@H]4CC[C@]23C)C1` [Compound 15, 27-O-β-D-glucopyranosyl-withaferin A], the “cytotoxicity relative to the aglycone withaferin A (16)” value in data set [1] (MTS assay, comparison in words) is reported as “less cytotoxicity”.

`CO[C@H]1CC(=O)[C@]2(C)[C@H]3CC[C@]4(C)[C@@H]([C@H](C)[C@H]5CC(C)=C(CO)C(=O)O5)CC[C@H]4[C@@H]3C[C@H]3O[C@]32[C@H]1O` [Compound 17, 2,3-dihydro-3β-methoxywithaferin A] showed an IC50 in “MTS viability” (Cytotoxicity IC50 (inactive for all cell lines used)) of over 10 µM. In “MTS viability” (setting [2]), `CC1=C(CO)C(=O)O[C@@H]([C@@H](C)[C@H]2CC[C@H]3[C@@H]4C[C@H]5O[C@]56[C@@H](O)[C@@H](O)CC(=O)[C@]6(C)[C@H]4CC[C@]23C)C1` [Compound 18, viscosalactone B] yielded an IC50 of over 10 µM. On the same count and under the same terms, the figure for `CC1=C(CO)C(=O)O[C@@H]([C@@H](C)[C@H]2CC[C@H]3[C@@H]4C[C@H]5O[C@]56[C@@H](O)CCC(=O)[C@]6(C)[C@H]4CC[C@]23C)C1` [Compound 20, 2,3-dihydrowithaferin A] is over 10 µM.

Compound `CC1=C(CO)C(=O)O[C@@H]([C@@H](C)[C@H]2CC[C@H]3[C@@H]4C[C@@H]5O[C@@H]6CC(=O)[C@](C)([C@H]4CC[C@]23C)[C@@]5(O)[C@H]6O)C1` [Compound 21, 3α,6α-epoxy-4β,5β,27-trihydroxy-1-oxowitha-24-enolide] yielded an IC50 in the data set “MTS viability” (setting [2]) of over 10 µM.
